# Data published in patent publication US12168646B2, “Aryl hydrocarbon receptor agonists and uses thereof” (NEXYS THERAPEUTICS, INC., priority 2022, dated 2024).
# Columns and labels:
# [1] = Stability in human feces (azo reduction in feces homogenate); type: in vitro ADME; settings: pH 6.8, 37° C., under nitrogen
# Method: Biological Data 2: Stability in Human Feces
# Accordingly, selected azo compounds of the invention were exposed to human feces under conditions suitable to promote azo reduction.
# The human feces from two donors were homogenized in isotonic phosphate buffered saline (pH 6.8) with a ratio of 1:10 (w/v). The tubes were sealed using sealing film. Test article was dissolved in isotonic phosphate buffer (pH 6.8) to form a working solution of 20 μM (if the solubility allows). An aliquot of working solution (50 μL) was added to the human feces homogenate (50 μL) for each time point (0, 1, 2, 4, 6 and 24 h) in duplicate and placed under nitrogen for about 1 minute in order to exhaust air, and then incubated at 37° C. After incubation at each pre-set time point, 1000 μL acetonitrile containing internal standard w as added to each tube to quench reaction. Samples were vortexed and centrifuged at 3700 rpm for 10 min and the supernatant was transferred for analysis (and diluted where necessary). The concentrations of test article and its metabolite (example 3) in the supernatants were determined using LC-MS/MS method. Sulfasalazine was used as a positive control. All incubations were performed in duplicate.
# AhR = molecular target: T1, AhR (Homo sapiens, UniProt P35869); assay: HT29 AhR Reporter Assay (HT29-Lucia AhR cells, QUANTI-Luc luminescence); type: cell-based; settings: HT29-Lucia AhR cells
# T1 construct: HT29-Lucia AhR cells were purchased from Invivogen (cat #ht21-ahr); host or cells: HT29-Lucia AhR cells
# T1 sequence (P35869 11-848): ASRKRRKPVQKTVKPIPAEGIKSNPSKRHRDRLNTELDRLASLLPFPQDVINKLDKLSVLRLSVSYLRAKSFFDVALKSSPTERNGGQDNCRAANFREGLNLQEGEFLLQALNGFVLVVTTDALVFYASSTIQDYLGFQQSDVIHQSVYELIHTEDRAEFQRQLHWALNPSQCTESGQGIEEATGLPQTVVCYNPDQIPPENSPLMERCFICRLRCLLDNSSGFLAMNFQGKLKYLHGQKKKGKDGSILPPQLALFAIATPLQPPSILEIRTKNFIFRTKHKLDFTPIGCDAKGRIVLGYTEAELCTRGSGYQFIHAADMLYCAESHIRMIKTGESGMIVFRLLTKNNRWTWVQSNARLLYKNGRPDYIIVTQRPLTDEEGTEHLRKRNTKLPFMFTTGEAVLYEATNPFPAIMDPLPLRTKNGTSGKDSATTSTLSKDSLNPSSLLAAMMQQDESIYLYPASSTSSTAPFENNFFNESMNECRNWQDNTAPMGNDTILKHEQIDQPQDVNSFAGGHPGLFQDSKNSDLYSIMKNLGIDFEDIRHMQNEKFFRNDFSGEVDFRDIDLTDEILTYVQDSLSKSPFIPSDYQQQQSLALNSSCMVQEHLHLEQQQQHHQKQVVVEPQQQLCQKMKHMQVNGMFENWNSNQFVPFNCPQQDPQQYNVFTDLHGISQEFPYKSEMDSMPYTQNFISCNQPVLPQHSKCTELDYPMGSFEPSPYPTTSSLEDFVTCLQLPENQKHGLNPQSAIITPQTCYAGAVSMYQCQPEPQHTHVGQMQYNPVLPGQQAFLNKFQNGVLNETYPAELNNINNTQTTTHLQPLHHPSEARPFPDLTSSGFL
# Method: Biological Data 1: HT29 AhR Reporter Assay HT29-Lucia AhR cells were purchased from Invivogen (cat #ht21-ahr). […] The cell suspension was removed from growth medium and rinsed gently with pre-warmed PBS (10 mL). Pre-warmed Trypsin (1 mL) was added, and cells were held at 30° C. for about 5 min and then detached by pipette. The dissociated cell clumps were gently pipetted up and down. The cells were resuspended in pre-warmed detection medium (DMEM, 10% FBS (30 min at 56° C.), 100 U/ml penicillin, 100 μg/ml streptomycin, and test article or vehicle) and counted. A cell suspension of ˜500,000 cells/mL in Detection medium was prepared. […] Samples (20 μL/well) were pipetted into a 96-well white (opaque), and QUANTI-Luc™ (50 μL/well) was added. The plate was gently tapped and then read in a luminometer (0.1 s reading time).
% of parent remaining after incubation for 6 h [1] [%],"EC50 (AhR; 18-24 h, EC50 = concentration to reach half of maximum efficacy of reference compound VAF347) [µM]","Emax (AhR; % efficacy = 100%*(TA-BG)/(Ref-BG), Ref = VAF347, read-out: HT29 AhR % efficacy) [%]",SMILES
69,–,–,"O=C(O)c1cc(/N=N/c2ccccc2-c2ccnc(Nc3ccc(C(F)(F)F)cc3)n2)cc(C(=O)O)c1O [Example 37, (E)-2-Hydroxy-5-((2-(2-((4-(trifluoromethyl)phenyl)amino)pyrimidin-4-yl)phenyl)diazenyl)isophthalic acid]"
76,–,–,"O=C(O)c1cc(O)cc(/N=N/c2ccccc2-c2ccnc(Nc3ccc(C(F)(F)F)cc3)n2)c1 [Example 55, (E)-3-hydroxy-5-((2-(2-((4-(trifluoromethyl)phenyl)amino)pyrimidin-4-yl)phenyl)diazenyl)benzoic acid]"
49,–,–,"O=C(O)c1cc(/N=N/c2ccccc2-c2ccnc(Nc3ccc(C(F)(F)F)cc3)n2)ccc1O [Example 32, (E)-2-hydroxy-5-((2-(2-((4-(trifluoromethyl)phenyl)amino)pyrimidin-4-yl)phenyl)diazenyl)benzoic acid]"

# The next lines start with the compound.
SMILES,% of parent remaining after incubation for 6 h [1] [%],"EC50 (AhR; 18-24 h, EC50 = concentration to reach half of maximum efficacy of reference compound VAF347) [µM]","Emax (AhR; % efficacy = 100%*(TA-BG)/(Ref-BG), Ref = VAF347, read-out: HT29 AhR % efficacy) [%]"
"O=C(O)c1ccc(O)c(/N=N/c2ccccc2-c2ccnc(Nc3ccc(C(F)(F)F)cc3)n2)c1 [Example 36, (E)-4-Hydroxy-3-((2-(2-((4-(trifluoromethyl)phenyl)amino)pyrimidin-4-yl)phenyl)diazenyl)benzoic acid]",19,–,–
"O=C(O)c1cc(/N=N/c2cccc(-c3ccnc(Nc4ccc(C(F)(F)F)cc4)n3)c2)ccc1O [Example 27, (E)-2-hydroxy-5-((3-(2-((4-(trifluoromethyl)phenyl)amino)pyrimidin-4-yl)phenyl)diazenyl)benzoic acid]",74,–,–
"O=C(O)c1cc(O)ccc1/N=N/c1ccccc1-c1ccnc(Nc2ccc(C(F)(F)F)cc2)n1 [Example 38, (E)-5-hydroxy-2-((2-(2-((4-(trifluoromethyl)phenyl)amino)pyrimidin-4-yl)phenyl)diazenyl)benzoic acid]",4,–,–
"O=C(O)c1cc(/C=C/c2ccccc2-c2ccnc(Nc3ccc(C(F)(F)F)cc3)n2)ccc1O [Example 59, (E)-2-hydroxy-5-(2-(2-((4-(trifluoromethyl)phenyl)amino)pyrimidin-4-yl)styryl)benzoic acid, reference compound]",94,1.42,74
